# Assay results from the METLIN SMRT retention time set (Domingo-Almenara et al. 2019).
# Assay: gradient 5% acetonitrile 3 min, to 50% in 2 min, to 85% in 15 min, held 3 min, 100 µL/min
# Conditions: column: Zorbax Extend-C18 2.1 x 50 mm; eluents: water / acetonitrile, 0.1% formic acid
# How it was run: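 Data were gathered over 3 months by HPLC coupled to a quadrupole time-of-flight mass spectrometer, operated in positive and negative ionization mode. Mixtures of ~100 pure standards ran on a Zorbax Extend-C18 column (2.1 × 50 mm, 1.8 μm) at 100 μL/min, with water and acetonitrile each containing 0.1% formic acid and dead and dwell volumes of 40 μL and 900 μL. Retention time was read from adduct peaks picked by computer and checked manually.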
row,Compound,RP-LC retention time [s]
1,O=C(NCc1ccc(Cl)cc1)NCC(O)Cc1ccccc1 (stereo not given),721
2,Cc1ccc(NC(=O)Cn2cnc3nc(N4CCC(C(=O)NC5CC5)CC4)sc3c2=O)cc1,674
3,N#Cc1cccc(NC(=O)C2CCN(S(=O)(=O)c3cc(-c4noc(C5CC5)n4)cs3)CC2)c1,994
4,Cc1ccc(-c2ccc3nnc(CCC(=O)NCc4ccccc4C(F)(F)F)n3n2)cc1,794
5,O=c1c2cc(-c3ccc4c(c3)OCO4)nn2ccn1Cc1nc(-c2cccc(Cl)c2)no1,1080
6,CC(C)Cc1csc(-c2csc(S(=O)(=O)NCc3ccc(F)cc3F)c2)n1,1160
7,CCCn1ncc(N2CCC(C(=O)N3CCC(C)CC3)CC2)cc1=O,734
8,CCN(CC)C(=O)c1ccc2nc(-c3ccc(C)cc3)cn2c1,649
9,COc1ccc(OCC(=O)N2CCc3c(c(-c4nnc(-c5ccccc5Cl)o4)nn3C)C2)cc1,1010
10,COc1ccc(C(C)NC(=O)C2CCCN(c3nccnc3Sc3ccc(C)cc3)C2)cc1 (stereo not given),1090
11,COc1cc(NC(=O)c2cn(-c3cc(N(C)C)ncn3)cn2)cc(OC)c1,809
12,CC(C(=O)NC1CCN(Cc2ccccc2)CC1)n1c(=O)c(C(F)(F)F)nc2ccccc21 (stereo not given),731
13,COC(=O)C1=CN(c2cc(OC)cc(OC)c2)c2cc(F)ccc2S1(=O)=O,904
14,Cc1ccc2c(c1)C(O)(CC(=O)c1cccc(-n3cccc3)c1)C(=O)N2 (stereo not given),711
15,CSc1ccc(-c2noc(CN3C(=O)COc4cc(C)ccc43)n2)cc1,1130
16,O=C(NCC1CCCO1)c1ccc([N+](=O)[O-])cc1Cl (stereo not given),664
17,O=C(NC1CCCC1)C1CCCN(S(=O)(=O)c2c[nH]c(C(=O)N3CCCC3)c2)C1 (stereo not given),698
18,O=C(NCCN1CCCCC1)c1cc2n(n1)CCCN(Cc1ccc(Cl)cc1)C2=O,642
19,COc1ccc(CNC(=O)Cn2nc(C(=O)N3CCCC3)c3ccccc32)cc1,773

# Now from value to compound:
row,RP-LC retention time [s],Compound
1,805,COc1ccc(-c2cn3c(CC(=O)Nc4ccc(OC)c(Cl)c4)csc3n2)cc1
2,854,CC1=C(c2ccccc2)S(=O)(=O)N=C1N1CCCN(C(=O)CC(C)(C)C)CC1
3,731,CC(=O)Nc1ccc(C(=O)N2CCC3(CC2)N=C(c2cccc(Br)c2)NO3)cc1
4,945,COC(=O)c1ccc(-c2csc(NC(=O)c3c(F)cccc3Cl)n2)cc1
5,811,Cc1nc2cc(-c3noc(C(C)NC(=O)c4ccccc4)n3)ccc2o1 (stereo not given)
6,799,Cc1ccc(N2CC(c3noc(-c4ccc(C)nc4)n3)CC2=O)cc1 (stereo not given)
7,742,Cc1c(C(=O)NCC2CC2)cnn1-c1cc(-c2nc(C(C)(C)C)no2)ccn1
8,858,CC(C)N1C(=O)c2cccnc2Sc2cc(NC(=O)Cc3ccccc3F)ccc21
9,1010,Fc1ccc(-c2nc(-c3cn(Cc4cccc(F)c4)nn3)no2)cc1
10,855,COc1ccc(-c2cc(=O)n3c4ccccc4n(CC(=O)NCc4ccco4)c3n2)cc1
11,730,O=c1ccc(-c2ccc3c(c2)OCO3)nn1CCc1nc(-c2ccccn2)no1
12,955,Cc1ccc(S(=O)(=O)N2C[C@@H]3CN(S(=O)(=O)c4ccccc4F)C[C@H](C2)O3)cc1
13,1290,CCc1nc(-c2cccc(-c3noc(COc4ccc(F)cc4)n3)c2)cs1
14,908,CCOC(=O)C(C(=O)Nc1ccccn1)C1CCCCC1 (stereo not given)
15,578,COC(=O)c1nnn(-c2nonc2N)c1CN1CCN(c2ccccn2)CC1
16,961,O=C(Nc1cccn2nc(C3CCC3)nc12)c1ccccn1
